# Test results reported in patent US5422118A, “Transdermal administration of amines with minimal irritation and high transdermal flux rate” (priority 1992, dated 1995).
# Counter-ions that a name gives are not always drawn. Like-named read-outs stand apart in the source and are kept apart here.
# Key:
# [1] = system: human forearm skin; conditions: in vivo
# Method: Patches of the saturated film 2 cm^2 in area were placed by test subjects on their own forearm skin and held in place by clear, nonocclusive adhesive (Tegaderm), allowing constant observation of the skin under the patch. After 17 hours, skin damage was evaluated by visual observation. The damage was ranked using the following scale: 1 (no discoloration, no erythema); 2 (pink coloration, slight erythema); 3 (reddening, moderate erythema, no burning); 4 (reddening and burning, moderate erythema); 5 (erythema and edema, with or without burning); 6 (severe erythema, edema, and burning); and 7 (severe erythema, severe burning, blistering, and edema).
# A physiologically active amine in the free base form can be evaluated for skin irritancy by Procedures A, B, or C, set out above. Alternatively, irritation can be determined by other conventional patch test involving maintaining the amine in contact with the skin for 24 hours, and then observing the skin. The results are evaluated using the scales provided for Procedures A, B, or C as defined herein.
# [2] = system: human forearm skin; experiment: Procedure B primary irritation study in humans (Finn Chambers, 24 hours, 0-4 erythema score)
# Text: Procedure B Primary Irritation Study in Human- Alternative Method Finn Chambers (Epitest, Ltd OY, Tuusula, Finland) for epicutaneous testing of irritation on Scanpor adhesive (Norgesplaster A/S, Norway; 10 chambers) were used to test the primary irritancy of the test compound or composition. The formulations were introduced into the Finn Chambers using the following procedures. The adhesive covering was removed and the filter paper dots were placed into the chambers to be used. A disposable pasteur pipette was used to add one drop of formulation onto the filter paper. The pipette was then discarded. This was repeated for each formulation, up to 10 formulations. The subjects' forearm was lowered onto the scanpor adhesive and pressure was applied to insure adhesion. Two strips of 2" paper tape were overlapped over the scanpor adhesive. This remained in place for 24 hours, at which time it was removed and scored immediately using the table below. […]
# Procedure B was used to evaluate the irritancy of physiologically active amines with or without complexation or solvation as described in more detail below.
# [3] = system: skin; conditions: WO 86/00806; cited from earlier work
# [4] = system: skin; conditions: WO 86/00806; cited from earlier work; remark: listed apart in the source
# [5] = system: skin
# [6] = Method: Given this information and the empirically determined transdermal flux rate of the material, the required patch size in centimeters^2 for effective dosing can be determined. […] The estimated patch size is determined by dividing the calculated therapeutically effective dose rate by the in vitro transdermal flux rate.
# The estimated patch size for such a composition can be calculated as described in detail above. […] Since water soluble salt forms of physiologically active amines are not at all soluble in nonpolar, nonvolatile solvents, these solvents cannot be used to increase their transdermal flux rate.
# The transdermal patch sizes required to deliver an effective dosage of a selected group of physiologically active amines were evaluated as described above. […] DEET, however, is not an appropriate solvent for extended transdermal drug delivery because it is not a United States Pharmacopeia accepted ingredient.
# [7] = cited from earlier work
# [8] = Transdermal flux rate through human skin in vitro (flow-through diffusion cell)
# Text: A surgically-removed human skin source was used for all in vitro diffusion cell tests. […] Briefly, the full-thickness skin was immersed in distilled water heated to 60±1 degrees C for 45 seconds. The epidermal-stratum corneum layers were then peeled from the dermis. The epidermis-stratum corneum layers were then excised with a cork borer into circular disks 1.4 cm in diameter.
# The skin was then mounted onto a Teflon flow-through diffusion cell. […] The skin sample of the donor portion of the diffusion cell was secured in place into the receptor cell. The flow-through cell consisted of a Teflon receptor cell with an exposed skin surface area of 0.32 cm^2 and a receptor cell volume of 0.13 mi. Sink conditions were maintained by pumping phosphate-buffered saline under the skin in the receptor cell at about 3 ml/hr. Thus, the receptor volume was replaced about 23 times per hour. These cells were then mounted on a water-jacketedbracket which maintained the receptor solution in the cells at 33 degrees C. The receptor media which was pumped under the cells was degassed in order to reduce air bubble formation under the skin. […]
# Liquid scintillation fluor was added directly to the sample vials so that they could be measured with minimal liquid transfers and handling. The sample vials were then analyzed with appropriate quench correction techniques by liquid scintillation spectroscopy. […]
# [9] = system: rabbit back skin; experiment: Procedure C primary skin irritation tests in animals; conditions: 24 hour exposure, scored 24 and 72 hours
# Method: Procedure C Primary Skin Irritation Tests in Animals Tests were performed on young adult albino rabbits (New Zealand White rabbits). Six rabbits were used for each test. The rabbits were prepared for the test by clipping the hair from the backs of the rabbits and any rabbit showing skin damage from the clipping was rejected from the testing. The application sites for the transdermal drug delivery (TDD) patch was intact skin. As an example, a formulation containing the test composition was incorporated into Poroplastic® transdermal patches. One TDD patch containing the test material was applied to one side of the rabbit's back. […] A one (1) inch square gauze patch, two single layers thick, was used to cover the test TDD patch. The animals were immobilized with patches secured in place by adhesive tape. The entire trunk of the animal was then wrapped with an impervious material for the twenty-four (24) hour exposure period. After 24 hours of exposure the patches were removed and the resulting reactions evaluated on the basis of the scoring system indicated below. Observations were again made at the end of a total of 72 hours (48 hours after the first reading). […]
# After 24 hours of exposure the patches were removed and the resulting reactions evaluated on the basis of scores as described above.
# [10] = system: skin; conditions: oral form; Physician's Desk Reference; cited from earlier work
# [11] = Procedure B, human forearm, 24 hours, score 0-4
smiles,measurement,setting,value
"CN(C)CCC(c1ccc(Cl)cc1)c1ccccn1 (stereo not drawn) [Chlorpheniramine Salicylate (1:1 M), Chlorpheniramine Salicylate]",Irritation Rating (1-7),[1],1.0
same,Erythema Rating,"[2]; Procedure B, human forearm, 24 hours, score 0-4, listed as Chlorpheniramine salicylate (1:1 molar ratio)",0.0
CCCCC/C=C\C/C=C\CCCCCCCC(=O)O [Linoleic acid],Erythema Rating,[2]; [11],0
CCCCCCCC/C=C\CCCCCCCC(=O)O [Oleic acid],Erythema Rating,[2]; in vivo,0
C=CCCCCCCCCC(=O)O [Undecylenic acid],Erythema Rating,[2]; in vivo,0
CN1CCC(=C2c3ccccc3CCc3cccnc32)CC1 [azatadine],dermal penetration (in words),[3],good dermal penetration
same,dermal irritation or sensitization (in words),[4],no dermal irritation or sensitization
CN(C)CCC(c1ccc(Br)cc1)c1ccccn1 (stereo not drawn) [brompheniramine maleate],skin irritation (in words),[5]; in vivo,minimally irritating
CCCCCCCCCCCCCCCCCC(=O)OCCCC [butyl stearate],Erythema Rating,[2]; in vivo,0
CN(C)CCC(c1ccc(Cl)cc1)c1ccccn1 (stereo not drawn) [chlorpheniramine maleate],Irritation Rating (1-7),[1],1.0
same,Erythema Rating,"[2]; Procedure B, human forearm, 24 hours, score 0-4, listed as Chlorpheniramine maleate (1:1 molar ratio)",0.0
same,skin irritation (in words),[5]; procedure not specified,minimally irritating
CN(C)CCC(c1ccc(Cl)cc1)c1ccccn1 (stereo not drawn) [chlorpheniramine],Erythema Rating,[2]; [11],4.0
same,estimated flux needed to achieve therapeutic blood levels,[6],90 µg/h
CN(C)CC[C@@H](c1ccc(Br)cc1)c1ccccn1 [dexbrompheniramine],cal dose rate,[6],98 µg/h
same,effective blood concentration,[7]; in vivo,5.3 ng/mL
CN(C)CCOC(c1ccccc1)c1ccccc1 [diphenhydramine hydrochloride],transdermal flux / skin penetration (in words),[8]; human skin,do not permeate the skin with a therapeutically effective flux rate
CN(C)CCOC(c1ccccc1)c1ccccc1 [diphenhydramine],Transdermal flux rate,"[8]; Table 2, applicant's compositions",55.8 μg/cm2/hr
OCCOCCN1CCN(C(c2ccccc2)c2ccc(Cl)cc2)CC1 (stereo not drawn) [hydroxyzine],irritation rating,[2]; in vivo,≤ 2
CCCCCCCCCCCCCC(=O)OC(C)C [isopropyl myristate],Erythema Rating,[2]; in vivo,0.3
CCCCCCCC/C=C\CCCCCCCC(=O)OC(C)C [isopropyl oleate],Erythema Rating,[2]; [11],0
CN1CCCC1c1cccnc1 (stereo not drawn) [nicotine],cal dose rate,"[6]; Table 2, clearance times effective blood level",936 µg/h
same,Clearance,[7]; Table 2,1200 mL/min
same,effective blood concentration,[7]; Table 2,13 ng/mL
same,primary irritation score,[9],less than 2
"COc1ccc(CCN(C)CCCC(C#N)(c2ccc(OC)c(OC)c2)C(C)C)cc1OC (stereo not drawn) [oral form of Varapamil, Varapamil]",adverse skin reactions (in words),[10],"arthralgia and rash, exanthema, hair loss, hyperkeratosis, macules, StevenJohnsons syndrome, and erythema multiforme"
CCCCCCCC/C=C\CCCCCCCC(=O)OCCC [propyl oleate],Erythema Rating,[2]; [11],0
